# Data taken from US20240109900A1, “AZABICYCLIC SHP2 INHIBITORS” (IRBM S.P.A., priority 2021, published 2024).
# Like-named read-outs stand apart in the source and are kept apart here.
# What was measured:
# [1] = target: SHP-2 enzyme (Met1-Leu525) (Homo sapiens (Human), UniProt Q06124); experiment: SHP2 inhibition enzymatic assay; type: biochemical; details: 0.5 nM SHP-2 activated by 500 nM IRS1 peptide, 75 μM DiFMUP substrate; read-out: SHP2wt-IC50
# How it was run: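 Compounds were preincubated 30 min with 0.5 nM SHP-2 (Met1-Leu525) plus 500 nM IRS1 activating peptide (pH 7.2 HEPES, 5 mM DTT), then 75 μM DiFMUP substrate reacted 30 min at room temperature. After bpV quench, DiFMUP fluorescence gave % inhibition; four-parameter logistic fit yielded IC50.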
# [2] = tested on: ERK phosphorylation in KYSE-520 cells; experiment: Phospho-ERK cellular assay; type: cell-based; details: read-out: PERK IC50
# How it was run: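 TR-FRET read-out of ERK1/2 Thr202/Tyr204 phosphorylation was taken after overnight antibody incubation at room temperature. Before that, KYSE-520 cells were treated 2 h at 37 °C with compound dilutions and lysed 30 min. Percent inhibition relative to vehicle and cell-free wells was fitted four-parametrically to give IC50.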
# [3] = Homo sapiens, KYSE-520, 2 h, KYSE-520 cells, 2 h at 37° C., phospho-ERK1/2 (Thr202/Tyr204) TR-FRET
# [4] = KYSE-520 cells, 2 h at 37° C., phospho-ERK1/2 (Thr202/Tyr204) TR-FRET
# Sequence of SHP-2 enzyme (Met1-Leu525) (Q06124 1-525): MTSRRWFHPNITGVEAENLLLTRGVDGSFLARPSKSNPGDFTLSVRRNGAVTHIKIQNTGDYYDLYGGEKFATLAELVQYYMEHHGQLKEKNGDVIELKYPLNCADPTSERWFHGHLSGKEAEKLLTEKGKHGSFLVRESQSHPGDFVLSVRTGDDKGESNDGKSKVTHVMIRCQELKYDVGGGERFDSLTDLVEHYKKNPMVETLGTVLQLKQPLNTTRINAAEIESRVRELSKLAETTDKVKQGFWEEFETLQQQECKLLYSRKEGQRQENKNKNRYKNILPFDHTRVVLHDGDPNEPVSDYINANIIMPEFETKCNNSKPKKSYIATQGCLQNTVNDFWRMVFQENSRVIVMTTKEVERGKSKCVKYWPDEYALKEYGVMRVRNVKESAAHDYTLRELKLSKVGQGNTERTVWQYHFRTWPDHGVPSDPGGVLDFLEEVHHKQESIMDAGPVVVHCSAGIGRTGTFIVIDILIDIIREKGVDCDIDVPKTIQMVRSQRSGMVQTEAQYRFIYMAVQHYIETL
SMILES,IC50 [1] [nM],"IC50 [2, 3] [nM]","IC50 [2, 4] [nM]","IC50 ([2]; Homo sapiens, KYSE-520, 2 h) [nM]"
"Cc1csc([C@@]2(CN)[C@@H]3CCN(c4cnc5c(-c6cccc(Cl)c6Cl)n[nH]c5n4)C[C@@H]32)n1 [Example 78, ((1S,6R,7S)-3-(3-(2,3-dichlorophenyl)-1H-pyrazolo[3,4-b]pyrazin-6-yl)-7-(4-methylthiazol-2-yl)-3-azabicyclo[4.1.0]heptan-7-yl)methanamine]",< 500,< 1000,,
"NC[C@]1(c2ccccc2F)[C@@H]2CCN(c3cnc4c(-c5cc(C(=O)O)ccc5Cl)n[nH]c4n3)C[C@@H]21 [Example 277, 3-(6-((1S,6R,7R)-7-(aminomethyl)-7-(2-fluorophenyl)-3-azabicyclo[4.1.0]heptan-3-yl)-1H-pyrazolo[3,4-b]pyrazin-3-yl)-4-chlorobenzoic acid]",< 500,> 5000,,
"NC[C@]1(c2ccccc2F)[C@@H]2CCN(c3cnc4c(-c5ccc(C(=O)NC6CC6)c6ncccc56)n[nH]c4n3)C[C@@H]21 [Example 279, 5-(6-((1S,6R,7R)-7-(aminomethyl)-7-(2-fluorophenyl)-3-azabicyclo[4.1.0]heptan-3-yl)-1H-pyrazolo[3,4-b]pyrazin-3-yl)-N-cyclopropylquinoline-8-carboxamide]",< 500,< 1000,,
"NC[C@]1(c2ccccc2F)[C@@H]2CCN(c3cnc4c(-c5ccc6c(c5)NC(=O)C6)n[nH]c4n3)C[C@@H]21 [Example 233, 6-(6-((1S,6R,7R)-7-(aminomethyl)-7-(2-fluorophenyl)-3-azabicyclo[4.1.0]heptan-3-yl)-1H-pyrazolo[3,4-b]pyrazin-3-yl)indolin-2-one]",< 500,< 1000,,
"NC[C@]1(c2ccccc2F)[C@@H]2CCN(c3cnc4c(-c5cccc(Br)c5Cl)n[nH]c4n3)C[C@@H]21 [Example 162, ((1S,6R,7R)-3-(3-(3-bromo-2-chlorophenyl)-1H-pyrazolo[3,4-b]pyrazin-6-yl)-7-(2-fluorophenyl)-3-azabicyclo[4.1.0]heptan-7-yl)methanamine]",< 500,< 1000,,
"COc1ccc(-c2n[nH]c3nc(N4CC[C@@H]5[C@H](C4)[C@@]5(CN)c4ccccc4F)cnc23)c2ccncc12 [Example 219, ((1S,6R,7R)-7-(2-fluorophenyl)-3-(3-(8-methoxyisoquinolin-5-yl)-1H-pyrazolo[3,4-b]pyrazin-6-yl)-3-azabicyclo[4.1.0]heptan-7-yl)methanamine]",< 500,< 1000,,
"Cn1cc2c(Cl)c(-c3n[nH]c4nc(N5CCC6C(C5)C6(CN)c5cc(CO)on5)cnc34)ccc2n1 (stereo not drawn) [Example 61, (3-(7-(aminomethyl)-3-(3-(4-chloro-2-methyl-2H-indazol-5-yl)-1H-pyrazolo[3,4-b]pyrazin-6-yl)-3-azabicyclo[4.1.0]heptan-7-yl)isoxazol-5-yl)methanol]",< 500,< 1000,,
"Cc1cc(C2(CN)C3CCN(c4cnc5c(-c6cccc7ncccc67)n[nH]c5n4)CC32)no1 (stereo not drawn) [Example 9, (7-(5-methylisoxazol-3-yl)-3-(3-(quinolin-5-yl)-1H-pyrazolo[3,4-b]pyrazin-6-yl)-3-azabicyclo[4.1.0]heptan-7-yl)methanamine]",< 500,< 1000,,
Cc1csc([C@@]2(CN)[C@@H]3CN(c4cnc5c(-c6ccnc(N)c6Cl)n[nH]c5n4)C[C@@H]32)n1 [Example 517],< 500,,< 1000,
"NC[C@]1(c2ccccc2F)[C@@H]2CCN(c3cnc4c(-c5ccn6ncnc6c5)n[nH]c4n3)C[C@@H]21 [Example 333, ((1S,6R,7R)-3-(3-([1,2,4]triazolo[1,5-a]pyridin-7-yl)-1H-pyrazolo[3,4-b]pyrazin-6-yl)-7-(2-fluorophenyl)-3-azabicyclo[4.1.0]heptan-7-yl)methanamine]",< 500,< 1000,,
"Cn1cc2c(Cl)c(-c3n[nH]c4nc(N5C[C@@H]6[C@H](C5)[C@@]6(CN)c5nccs5)cnc34)ccc2n1 [Example 486, ((1R,5S,6r)-3-(3-(4-chloro-2-methyl-2H-indazol-5-yl)-1H-pyrazolo[3,4-b]pyrazin-6-yl)-6-(thiazol-2-yl)-3-azabicyclo[3.1.0]hexan-6-yl)methanamine]",< 500,< 1000,,
"CN1Cc2cc(-c3n[nH]c4nc(N5CC[C@@H]6[C@H](C5)[C@@]6(CN)c5ccccc5F)cnc34)ccc2C1=O [Example 244, 5-(6-((1S,6R,7R)-7-(aminomethyl)-7-(2-fluorophenyl)-3-azabicyclo[4.1.0]heptan-3-yl)-1H-pyrazolo[3,4-b]pyrazin-3-yl)-2-methylisoindolin-1-one]",< 500,< 1000,,
"NC[C@]1(c2ccccc2F)[C@@H]2CCN(c3cnc4c(-c5ccc6c(c5)NC(=O)CC6)n[nH]c4n3)C[C@@H]21 [Example 230, 7-(6-((1S,6R,7R)-7-(aminomethyl)-7-(2-fluorophenyl)-3-azabicyclo[4.1.0]heptan-3-yl)-1H-pyrazolo[3,4-b]pyrazin-3-yl)-3,4-dihydroquinolin-2(1H)-one]",< 500,< 1000,,
"NC[C@]1(c2ccccc2F)[C@@H]2CCN(c3cnc4c(-c5cc6ccccc6c(=O)[nH]5)n[nH]c4n3)C[C@@H]21 [Example 235, 3-(6-((1S,6R,7R)-7-(aminomethyl)-7-(2-fluorophenyl)-3-azabicyclo[4.1.0]heptan-3-yl)-1H-pyrazolo[3,4-b]pyrazin-3-yl)isoquinolin-1(2H)-one]",< 500,> 5000,,
"Cc1csc([C@@]2(CN)[C@@H]3CN(c4nc5[nH]nc(-c6ccc7nc(C)sc7c6Cl)c5c(=O)n4C)C[C@@H]32)n1 [Example 469, 6-((1R,5S,6r)-6-(aminomethyl)-6-(4-methylthiazol-2-yl)-3-azabicyclo[3.1.0]hexan-3-yl)-3-(7-chloro-2-methylbenzo[d]thiazol-6-yl)-5-methyl-1,5-dihydro-4H-pyrazolo[3,4-d]pyrimidin-4-one]",< 500,< 1000,,
"Cc1cc([C@@]2(CN)[C@@H]3CCN(c4cnc5c(-c6ccnc7ccc(F)cc67)n[nH]c5n4)C[C@@H]32)no1 [Example 39, ((1S,6R,7S)-3-(3-(6-fluoroquinolin-4-yl)-1H-pyrazolo[3,4-b]pyrazin-6-yl)-7-(5-methylisoxazol-3-yl)-3-azabicyclo[4.1.0]heptan-7-yl)methanamine]",< 500,< 1000,,
"NC[C@]1(c2ccccc2F)[C@@H]2CCN(c3cnc4c(-c5ccnc6c(F)cccc56)n[nH]c4n3)C[C@@H]21 [Example 132, ((1S,6R,7R)-7-(2-fluorophenyl)-3-(3-(8-fluoroquinolin-4-yl)-1H-pyrazolo[3,4-b]pyrazin-6-yl)-3-azabicyclo[4.1.0]heptan-7-yl)methanamine]",< 500,< 1000,,
"Cc1csc(C2(CN)C3CCN(c4cnc5c(-c6ccc(OS(=O)(=O)F)c7ccccc67)n[nH]c5n4)CC32)n1 (stereo not drawn) [Example 103, 4-(6-(7-(aminomethyl)-7-(4-methylthiazol-2-yl)-3-azabicyclo[4.1.0]heptan-3-yl)-1H-pyrazolo[3,4-b]pyrazin-3-yl)naphthalen-1-yl sulfurofluoridate]",< 500,,,< 1000
Cc1csc([C@@]2(CN)[C@@H]3CN(c4cnc5c(-c6ccncc6Cl)n[nH]c5n4)C[C@@H]32)n1 [Example 519],< 500,,< 1000,
"COc1cc2ccc(-c3n[nH]c4nc(N5CC[C@@H]6[C@H](C5)[C@@]6(CN)c5ccccc5F)cnc34)cc2nn1 [Example 262, ((1S,6R,7R)-7-(2-fluorophenyl)-3-(3-(3-methoxycinnolin-7-yl)-1H-pyrazolo[3,4-b]pyrazin-6-yl)-3-azabicyclo[4.1.0]heptan-7-yl)methanamine]",< 500,< 1000,,
"Cn1cnc2ccc(-c3n[nH]c4nc(N5CC[C@@H]6[C@H](C5)[C@@]6(CN)c5ccccc5F)cnc34)c(Cl)c21 [Example 338, ((1S,6R,7R)-3-(3-(7-chloro-1-methyl-1H-benzo[d]imidazol-6-yl)-1H-pyrazolo[3,4-b]pyrazin-6-yl)-7-(2-fluorophenyl)-3-azabicyclo[4.1.0]heptan-7-yl)methanamine]",< 500,< 1000,,
"Cc1cc(C2(CN)C3CCN(c4cnc5c(N6CCCc7ncccc76)n[nH]c5n4)CC32)no1 (stereo not drawn) [Example 60, (3-(3-(3,4-dihydro-1,5-naphthyridin-1(2H)-yl)-1H-pyrazolo[3,4-b]pyrazin-6-yl)-7-(5-methylisoxazol-3-yl)-3-azabicyclo[4.1.0]heptan-7-yl)methanamine]",< 500,< 1000,,
"NC[C@]1(c2ccccc2F)[C@@H]2CCN(c3cnc4c(-c5ccnc(NC6CC6)c5Cl)n[nH]c4n3)C[C@@H]21 [Example 197, 4-(6-((1S,6R,7R)-7-(aminomethyl)-7-(2-fluorophenyl)-3-azabicyclo[4.1.0]heptan-3-yl)-1H-pyrazolo[3,4-b]pyrazin-3-yl)-3-chloro-N-cyclopropylpyridin-2-amine]",< 500,< 1000,,
"NC[C@]1(c2ccccc2F)[C@@H]2CCN(c3cnc4c(-c5ccc6ncncc6c5)n[nH]c4n3)C[C@@H]21 [Example 290, ((1S,6R,7R)-7-(2-fluorophenyl)-3-(3-(quinazolin-6-yl)-1H-pyrazolo[3,4-b]pyrazin-6-yl)-3-azabicyclo[4.1.0]heptan-7-yl)methanamine]",< 500,< 1000,,
